Experimental data taken from the supplement of paper PMC11061612.

Assays:
[1] = system: MOLT-13 (T-Lymphoblastic Leukemia); assay: Bliss excess, mean over the matrix (fraction); higher = more synergy
Outline: (§1)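 After 24 hours at 37°C and 5% CO2 in 1536-well plates, cells in DMEM/F12 or RPMI plus 10% FBS received two-drug dose matrices for 72 hours. Viability came from CellTiter-Glo 2.0 luminescence and was scaled as inhibition, anchored at 0 by vehicle wells and at 1 by blank wells. Combination Emax is taken as the second-highest inhibition in the matrix, and Bliss excess as the observed combination effect less EA + EB − EA·EB, with EA and EB the single-agent effects.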

[2] = system: MDA-MB-415 (Breast Carcinoma); assay: as above
Outline: as §1

[3] = system: BHT-101 (Thyroid Gland Carcinoma); assay: as above
Outline: as §1

[4] = system: ZR-75-30 (Breast Carcinoma); assay: combination Emax (second highest fraction inhibited in the dose matrix, 72 h); higher = more inhibition; extreme values may be limits of the assay
Outline: as §1

[5] = system: P30-OHK (B-Lymphoblastic Leukemia); assay: as above
Outline: as §1

[6] = system: AM-38 (Glioblastoma); assay: as above
Outline: as §1

[7] = system: SNU-423 (Hepatocellular Carcinoma); assay: as above
Outline: as §1

[8] = system: MM1S (Plasma Cell Myeloma); assay: as above
Outline: as §1

[9] = system: NCI-H1963 (Small Cell Lung Carcinoma); assay: as above
Outline: as §1

[10] = system: Raji (Burkitt's Lymphoma); assay: as above
Outline: as §1

[11] = system: WM35 (Melanoma); assay: as above
Outline: as §1

[12] = system: SNU-C2B (Colorectal Carcinoma); assay: as above
Outline: as §1

[13] = system: LCLC-103H (Non-Small Cell Lung Carcinoma); assay: as above
Outline: as §1

[14] = system: PA-TU-8988T (Pancreatic Carcinoma); assay: as above
Outline: as §1

[15] = system: RCC-JW (Kidney Carcinoma); assay: as above
Outline: as §1

[16] = system: MDA-MB-415 (Breast Carcinoma); assay: as above
Outline: as §1

[17] = system: UACC-257 (Melanoma); assay: as above
Outline: as §1

[18] = system: NCI-H1876 (Small Cell Lung Carcinoma); assay: as above
Outline: as §1

[19] = system: NAMALWA (Burkitt's Lymphoma); assay: as above
Outline: as §1

[20] = system: NB1 (Neuroblastoma); assay: as above
Outline: as §1
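Throughout, for Bliss excess, mean over the matrix: after 72 h of two-drug dosing.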

Row | Structure (SMILES) | Bliss excess [1] | Bliss excess [2] | Bliss excess [3] | combination Emax [4] | combination Emax [5] | combination Emax [6] | combination Emax [7] | combination Emax [8] | combination Emax [9] | combination Emax [10] | combination Emax [11] | combination Emax [12] | combination Emax [13] | combination Emax [14] | combination Emax [15] | combination Emax [16] | combination Emax [17] | combination Emax [18] | combination Emax [19] | combination Emax [20]
1 | CCN(CCO)CCCOc1ccc2c(Nc3cc(CC(=O)Nc4cccc(F)c4)[nH]n3)ncnc2c1 [AZD2811] + C=CCn1c(=O)c2cnc(Nc3ccc(N4CCN(C)CC4)cc3)nc2n1-c1cccc(C(C)(C)O)n1 [AZD1775] (first compound max 1 µM, partner max 1 µM) | 0.0166 | -0.0152 | 0.0043 | 0.155 | 0.846 | 0.377 | 0.59 | 0.776 | 0.876 | 0.667 | 0.197 | 0.554 | 0.546 | 0.678 | 0.161 | 0.131 | 0.154 | 0.991 | 0.977 | 0.869
2 | CCN(CCO)CCCOc1ccc2c(Nc3cc(CC(=O)Nc4cccc(F)c4)[nH]n3)ncnc2c1 [AZD2811] + C[C@@H]1COCCN1C2=NC(=NC(=C2)C3(CC3)[S@](=N)(=O)C)C4=C5C=CNC5=NC=C4 [AZD6738] (first compound max 1 µM, 7x7, partner max 10 µM) | -0.0075 | -0.0438 | -0.0298 | 0.18 | 0.928 | 0.747 | 0.473 | 0.646 | 0.887 | 0.691 | 0.575 | 0.655 | 0.5 | 0.35 | 0.545 | 0.498 | 0.16 | 0.963 | 0.924 | 0.79
3 | CCN(CCO)CCCOc1ccc2c(Nc3cc(CC(=O)Nc4cccc(F)c4)[nH]n3)ncnc2c1 [AZD2811] + O=C(c1cc(Cc2n[nH]c(=O)c3ccccc23)ccc1F)N1CCN(C(=O)C2CC2)CC1 [Olaparib] (first compound max 1 µM, 7x7, partner max 10 µM) | -0.0146 | 0.0059 | -0.0193 | 0.185 | 0.848 | 0.331 | 0.264 | 0.291 | 0.856 | 0.341 | 0.179 | 0.269 | 0.752 | 0.208 | 0.183 | 0.225 | 0.237 | 0.821 | 0.617 | 0.653
4 | CN(CCO)CC[C@H](CSc1ccccc1)Nc1ccc(S(=O)(=O)NC(=O)c2ccc(N3CCC([C@@H](O)c4ccccc4-c4ccc(Cl)cc4)CC3)cc2)cc1S(=O)(=O)C(F)(F)F [AZD4320] + C=CCn1c(=O)c2cnc(Nc3ccc(N4CCN(C)CC4)cc3)nc2n1-c1cccc(C(C)(C)O)n1 [AZD1775] (first compound max 1 µM, partner max 1 µM) | 0.064 | -0.0034 | 0.0142 | 0.173 | 1 | 0.834 | 0.804 | 1 | 1 | 0.591 | 0.331 | 0.79 | 0.726 | 0.922 | 0.712 | 0.665 | 0.103 | 1 | 0.982 | 0.931
5 | CN(CCO)CC[C@H](CSc1ccccc1)Nc1ccc(S(=O)(=O)NC(=O)c2ccc(N3CCC([C@@H](O)c4ccccc4-c4ccc(Cl)cc4)CC3)cc2)cc1S(=O)(=O)C(F)(F)F [AZD4320] + CCN(CCO)CCCOc1ccc2c(Nc3cc(CC(=O)Nc4cccc(F)c4)[nH]n3)ncnc2c1 [AZD2811] (first compound max 1 µM, 7x7, partner max 1 µM) | -0.0204 | 0.0756 | -0.0112 | 0.173 | 1 | 0.932 | 0.466 | 1 | 1 | 0.219 | 0.136 | 0.168 | 0.344 | 0.398 | 0.661 | 0.619 | 0.161 | 0.998 | 0.48 | 0.684
6 | CN(CCO)CC[C@H](CSc1ccccc1)Nc1ccc(S(=O)(=O)NC(=O)c2ccc(N3CCC([C@@H](O)c4ccccc4-c4ccc(Cl)cc4)CC3)cc2)cc1S(=O)(=O)C(F)(F)F [AZD4320] + CN(C)CCCOc1ccc(-c2ccc3ncc4c(c3c2)n(C2CCOCC2)c(=O)n4C)cn1 [AZD0156] (first compound max 1 µM, 7x7, partner max 1 µM) | 0.0257 | -0.114 | -0.0193 | 0.169 | 0.987 | 0.718 | 0.515 | 0.984 | 1 | 0.136 | 0.152 | 0.208 | 0.219 | 0.183 | 0.62 | 0.636 | 0.141 | 0.982 | 0.158 | 0.173
7 | CN(CCO)CC[C@H](CSc1ccccc1)Nc1ccc(S(=O)(=O)NC(=O)c2ccc(N3CCC([C@@H](O)c4ccccc4-c4ccc(Cl)cc4)CC3)cc2)cc1S(=O)(=O)C(F)(F)F [AZD4320] + C[C@@H]1COCCN1C2=NC(=NC(=C2)C3(CC3)[S@](=N)(=O)C)C4=C5C=CNC5=NC=C4 [AZD6738] (first compound max 1 µM, 7x7, partner max 10 µM) | -0.0057 | -0.0749 | -0.0067 | 0.286 | 1 | 0.95 | 0.624 | 1 | 1 | 0.768 | 0.367 | 0.636 | 0.546 | 0.319 | 0.79 | 0.879 | 0.186 | 1 | 0.928 | 0.936
8 | CN(CCO)CC[C@H](CSc1ccccc1)Nc1ccc(S(=O)(=O)NC(=O)c2ccc(N3CCC([C@@H](O)c4ccccc4-c4ccc(Cl)cc4)CC3)cc2)cc1S(=O)(=O)C(F)(F)F [AZD4320] + C[C@@H](Nc1cc(F)cc(F)c1)c1cc(C(=O)N(C)C)cc2c(=O)cc(N3CCOCC3)oc12 [AZD8186] (first compound max 1 µM, 7x7, partner max 3 µM) | 0.0093 | 0.0439 | -0.0192 | 0.285 | 0.979 | 0.905 | 0.547 | 0.988 | 1 | 0.354 | 0.561 | 0.374 | 0.507 | 0.437 | 0.817 | 0.909 | 0.269 | 1 | 0.573 | 0.651
9 | CN(CCO)CC[C@H](CSc1ccccc1)Nc1ccc(S(=O)(=O)NC(=O)c2ccc(N3CCC([C@@H](O)c4ccccc4-c4ccc(Cl)cc4)CC3)cc2)cc1S(=O)(=O)C(F)(F)F [AZD4320] + Cc1cc2ncnn2cc1Nc1ncc2c(n1)n(C1CCOCC1)c(=O)n2C [AZD7648] (first compound max 1 µM, 7x7, partner max 10 µM) | 0.0309 | -0.0243 | -0.0361 | 0.126 | 0.982 | 0.811 | 0.39 | 1 | 1 | 0.202 | 0.16 | 0.191 | 0.223 | 0.23 | 0.566 | 0.749 | 0.122 | 0.925 | 0.323 | 0.191
10 | CN(CCO)CC[C@H](CSc1ccccc1)Nc1ccc(S(=O)(=O)NC(=O)c2ccc(N3CCC([C@@H](O)c4ccccc4-c4ccc(Cl)cc4)CC3)cc2)cc1S(=O)(=O)C(F)(F)F [AZD4320] + Cn1cnc2c(F)c(Nc3ccc(Br)cc3Cl)c(C(=O)NOCCO)cc21 [Selumetinib] (first compound max 1 µM, 7x7, partner max 3 µM) | 0.0816 | -0.0181 | 0.0147 | 0.294 | 0.99 | 0.951 | 0.414 | 0.983 | 1 | 0.338 | 0.926 | 0.422 | 0.423 | 0.379 | 0.665 | 0.583 | 0.838 | 1 | 0.512 | 0.448
11 | COc1nnc2ccc(N3CCC(c4ccc(OCCN5CCN(C)C(=O)[C@H]5C)cc4)CC3)nn12 [AZD5153] + C=CCn1c(=O)c2cnc(Nc3ccc(N4CCN(C)CC4)cc3)nc2n1-c1cccc(C(C)(C)O)n1 [AZD1775] (first compound max 1 µM, partner max 1 µM) | -0.0319 | -0.0878 | -0.0885 | 0.309 | 1 | 0.353 | 0.462 | 0.734 | 0.952 | 0.711 | 0.467 | 0.584 | 0.549 | 0.778 | 0.382 | 0.44 | 0.359 | 0.99 | 0.969 | 0.842
12 | COc1nnc2ccc(N3CCC(c4ccc(OCCN5CCN(C)C(=O)[C@H]5C)cc4)CC3)nn12 [AZD5153] + CC1(C)CCC(CN2CCN(c3ccc(C(=O)NS(=O)(=O)c4ccc(NCC5CCOCC5)c([N+](=O)[O-])c4)c(Oc4cnc5[nH]ccc5c4)c3)CC2)=C(c2ccc(Cl)cc2)C1 [Venetoclax] (first compound max 1 µM, 7x7, partner max 1 µM) | 0.11 | -0.0155 | -0.0616 | 0.235 | 1 | 0.232 | 0.41 | 0.611 | 0.988 | 0.62 | 0.556 | 0.545 | 0.376 | 0.664 | 0.3 | 0.409 | 0.305 | 0.3 | 0.761 | 0.232
